The text below walks through data of patent US7429599B2, “Methods for treating or preventing an inflammatory or metabolic condition or inhibiting JNK” (Signal Pharmaceuticals, LLC, priority 2000, dated 2008).

The experiment has as its target T1, His6-JNK2 (Homo sapiens, UniProt P45984).
T1 construct: His6 (N)
Put plainly: JNK2 Assay (c-Jun phosphorylation, 32P-ATP filter plate). It is filed as biochemical. Particulars: c-Jun phosphorylation reduced to 50% of control, GST-c-Jun(1-79), 11 μM ATP. Here is the method:
To 10 μL of the test compound in 20%/DMSO/80% dilutien buffer consisting of 20 mM HELPS (pH 7.6), 0.1 mM; EDTA, 2.5 mM magnesium chloride, 0.004% Triton×100, 2 μg/mL leupeptin, 20 mM β-glycerolphosphate, 0.1 mM sodium vanadate, and 2 mM DTT in water is added 30 μL of 50 ng His6-JNK2 in the same dilution buffer. The mixture is preincubated for 30 minutes at room temperature. Sixty microliter of 10 μg GST-c-Jun(1-79) in assay buffer consisting of 20 mM HEPES (pH 7.6), 50 mM sodium chloride, 0.1 mM EDTA, 24 mM magnesium chloride, 1 mM DTT, 25 mM PNPP, 0.05% Triton×100, 11 μM ATP, and 0.5 μCi γ-^32P ATP in water is added and the reaction is allowed to proceed for 1 hour at room temperature. The c-Jun phosphorylation is terminated by addition of 150 μL of 12.5% trichloroacetic acid. After 30 minutes, the precipitate is harvested onto a filter plate, diluted with 50 μL of the scintillation fluid and quantified by a counter. The IC50 values are calculated as the concentration of the test compound at which the c-Jun phosphorylation is reduced to 50% of the control value.

The mark [1] stands for this setting: read-out: IC50 value in the JNK2 Assay.

pIC50: −log10 of the molar value. Where two headings read alike, the source gives them in different places.

T1 sequence (P45984 whole entry): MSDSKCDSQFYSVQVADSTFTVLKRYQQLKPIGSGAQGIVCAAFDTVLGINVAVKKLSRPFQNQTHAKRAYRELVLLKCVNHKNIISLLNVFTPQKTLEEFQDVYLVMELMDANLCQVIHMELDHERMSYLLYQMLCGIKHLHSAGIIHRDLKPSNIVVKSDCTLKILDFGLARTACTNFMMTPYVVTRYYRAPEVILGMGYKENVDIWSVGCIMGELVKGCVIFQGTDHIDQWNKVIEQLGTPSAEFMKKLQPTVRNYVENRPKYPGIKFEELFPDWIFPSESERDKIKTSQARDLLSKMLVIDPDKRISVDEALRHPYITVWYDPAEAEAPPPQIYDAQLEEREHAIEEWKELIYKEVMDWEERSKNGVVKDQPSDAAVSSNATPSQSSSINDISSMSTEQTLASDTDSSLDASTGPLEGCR

Take `NC(=O)c1ccc(Nc2nccc(-c3ccccc3)n2)cc1` [Compound 3-4]: the pIC50 under setting [1] is no less than 6.00.
For `COC(=O)CNC(=O)c1ccc(Nc2nccc(-c3ccc(Cl)cc3)n2)cc1` [Compound 17-91], under setting [1], the pIC50 is no less than 5.00.
In the case of `O=C(c1ccc(Nc2nccc(-c3ccc(Cl)cc3)n2)cc1)N1CCC(N2CCCC2)CC1` [Compound 17-171], the pIC50 under setting [1] was no less than 6.00.
Regarding `O=C(c1ccc(Nc2nccc(-c3ccc(Cl)cc3)n2)cc1)N1CCC(NCCO)CC1` [Compound 22-11], the pIC50 under setting [1] is no less than 6.00.
For `CC(=O)c1ccc(N2CCN(C(=O)c3ccc(Nc4nccc(-c5ccc(Cl)cc5)n4)cc3)CC2)cc1` [Compound 17-134], the pIC50 under setting [1] was no less than 5.00.
For the compound `O=C(NCCCn1ccnc1)c1ccc(Nc2nccc(-c3ccc(Cl)cc3)n2)cc1` [Compound 17-21], under setting [1], the pIC50 was no less than 6.00.
On to `CCN(CC)CCCNC(=O)c1ccc(Nc2nccc(-c3ccc(Cl)cc3)n2)cc1` [Compound 17-153], for which the pIC50 under setting [1] is no less than 5.00.
`O=C(NCCc1ccccn1)c1ccc(Nc2nccc(-c3ccc(Cl)cc3)n2)cc1` [Compound 17-118]: the pIC50 under setting [1] was no less than 5.00.
Consider `CN1CCN(CCCSc2ccc(-c3ccnc(Nc4ccc(C(N)=O)cc4)n3)cc2)CC1` [Compound 3-12], for which, under setting [1], the pIC50 is no less than 5.00.
For `CN1CCC(S(=O)(=O)c2ccc(-c3ccnc(Nc4ccc(C(N)=O)cc4)n3)cc2)CC1` [Compound 3-16], under setting [1], the negative-log IC50 (pIC50) is no less than 5.00.
The same measure, in the same setting: then `CCN(CC)C(=O)C1CCCN(C(=O)c2ccc(Nc3nccc(-c4ccc(Cl)cc4)n3)cc2)C1` (stereo not drawn) [Compound 17-130], with no less than 5.00.
As for `CCOC(=O)N1CCN(C(=O)c2ccc(Nc3nccc(-c4ccc(Cl)cc4)n3)cc2)CC1` [Compound 17-137], under setting [1], the pIC50 is no less than 6.00.
On the same count and under the same terms, then `CC(C)NC(=O)CN1CCN(C(=O)c2ccc(Nc3nccc(-c4ccc(Cl)cc4)n3)cc2)CC1` [Compound 17-141], with no less than 6.00; and `CN1CCN(CCCNC(=O)c2ccc(Nc3nccc(-c4ccc(Cl)cc4)n3)cc2)CC1` [Compound 17-164], with no less than 5.00; and `CC(=O)N1CCCN(C(=O)c2ccc(Nc3nccc(-c4ccc(Cl)cc4)n3)cc2)CC1` [Compound 17-160], with no less than 5.00.
Take `CC(O)CNC(=O)c1ccc(Nc2nccc(-c3ccc(Cl)cc3)n2)cc1` (stereo not drawn) [Compound 17-26]: under setting [1], the pIC50 was no less than 5.00.
Still for that read-out and setting: then `CN(C)c1ccc(-c2ccnc(Nc3ccc(C(N)=O)cc3)n2)cc1` [Compound 3-29], with no less than 5.00.
As for `O=C(c1ccc(Nc2nccc(-c3ccc(Cl)cc3)n2)cc1)N1CCC(O)CC1` [Compound 17-20], the pIC50 under setting [1] was no less than 6.00.
`O=C(c1ccc(Nc2nccc(-c3ccc(Cl)cc3)n2)cc1)N1CCN(CCO)CC1` [Compound 17-215]: the pIC50 under setting [1] is no less than 5.00.
As for `O=CN1CCN(C(=O)c2ccc(Nc3nccc(-c4ccc(Cl)cc4)n3)cc2)CC1` [Compound 17-131], under setting [1], the negative logarithm of the IC50 (pIC50) is no less than 5.00.
Take `O=C(c1ccc(Nc2nccc(-c3ccc(Cl)cc3)n2)cc1)N1CCN(c2ccccc2)CC1` [Compound 17-158]: the pIC50 under setting [1] was no less than 5.00.
Turning to `CNC(=O)c1ccc(Nc2nccc(-c3ccc(Cl)cc3)n2)cc1` [Compound 17-3], under setting [1], the pIC50 was no less than 5.00.
For the compound `CN(C)CCCNC(=O)c1ccc(Nc2nccc(-c3ccc(Cl)cc3)n2)cc1` [Compound 17-154], the pIC50 under setting [1] was no less than 6.00.
With `CN(Cc1ccccc1)C(=O)c1ccc(Nc2nccc(-c3ccc(Cl)cc3)n2)cc1` [Compound 17-157], under setting [1], the pIC50 was no less than 5.00.
For `CN1CCCC1CCNC(=O)c1ccc(Nc2nccc(-c3ccc(Cl)cc3)n2)cc1` (stereo not drawn) [Compound 17-152], the negative logarithm of the IC50 (pIC50) under setting [1] is no less than 5.00.
Consider `CCN(Cc1ccncc1)C(=O)c1ccc(Nc2nccc(-c3ccc(Cl)cc3)n2)cc1` [Compound 17-147], for which, under setting [1], the negative-log IC50 (pIC50) is no less than 6.00.
As for `O=C(c1ccc(Nc2nccc(-c3ccc(S(=O)(=O)c4ccncc4)cc3)n2)cc1)N1CCN(C(=O)c2ccco2)CC1` [Compound 17-30], under setting [1], the pIC50 was no less than 6.00.
Regarding `O=C(c1ccc(Nc2nccc(-c3ccc(Cl)cc3)n2)cc1)N1CCC2(CC1)OCCO2` [Compound 17-139], the pIC50 (IC50 value in the JNK2 Assay) is no less than 5.00.
With `CN1CCN(S(=O)(=O)c2ccc(-c3ccnc(Nc4ccc(C(N)=O)cc4)n3)cc2)CC1` [Compound 3-17], the negative logarithm of the IC50 (pIC50) under setting [1] is no less than 5.00.
Regarding `CN1CCN(C(=O)c2ccc(Nc3nccc(-c4ccc(Cl)cc4)n3)cc2)CC1` [Compound 17-127], under setting [1], the pIC50 was no less than 6.00.
For the compound `O=C(Nc1nc2ccccc2[nH]1)c1ccc(Nc2nccc(-c3ccc(Cl)cc3)n2)cc1` [Compound 17-121], the pIC50 under setting [1] was no less than 5.00.
On the same count and under the same terms, then `COCC(=O)NC1CCN(C(=O)c2ccc(Nc3nccc(-c4ccc(Cl)cc4)n3)cc2)CC1` [Compound 20-6], with no less than 5.00; and `CN(CCc1ccccn1)C(=O)c1ccc(Nc2nccc(-c3ccc(Cl)cc3)n2)cc1` [Compound 17-151], with no less than 5.00; and `CC(=O)N1CCN(C(=O)c2ccc(Nc3nccc(-c4ccc(S(=O)(=O)c5ccncc5)cc4)n3)cc2)CC1` [Compound 17-29], with no less than 6.00.
`NC(=O)c1ccc(Nc2nccc(-c3ccc(Cl)cc3)n2)cc1` [Compound 1, 4-{[4-(4-Chlorophenyl)pyrimidin-2-yl]amino}benzamide]: under setting [1], the pIC50 was no less than 5.00.
On the same count and under the same terms, then `O=C(Nc1ccc2[nH]ncc2c1)c1ccc(Nc2nccc(-c3ccc(Cl)cc3)n2)cc1` [Compound 17-119], with no less than 5.00.
As to `CN(C)C(=O)NC1CCN(C(=O)c2ccc(Nc3nccc(-c4ccc(Cl)cc4)n3)cc2)CC1` [Compound 20-5], the negative logarithm of the IC50 (pIC50) under setting [1] was no less than 5.00.
`O=C(c1ccc(Nc2nccc(-c3ccc(Cl)cc3)n2)cc1)N1CC=CCC1` [Compound 17-144]: the pIC50 under setting [1] was no less than 5.00.
The same measure, in the same setting: then `NC(=O)c1ccc(Nc2nccc(-c3ccc(S(=O)(=O)CCCO)cc3)n2)cc1` [Compound 3-15], with no less than 6.00; and `O=C(c1ccc(Nc2nccc(-c3ccc(Cl)cc3)n2)cc1)N1CCN(C(=O)c2ccco2)CC1` [Compound 17-159], with no less than 5.00.
As to `O=C(c1ccc(Nc2nccc(-c3ccc(Cl)cc3)n2)cc1)N1CCC(c2ccccc2)CC1` [Compound 17-140], the pIC50 under setting [1] is no less than 5.00.
As to `O=C(c1ccc(Nc2nccc(-c3ccc(Cl)cc3)n2)cc1)N1CCN(Cc2cccnc2)CC1` [Compound 17-161], under setting [1], the pIC50 is no less than 5.00.
On to `O=C(c1ccc(Nc2nccc(-c3ccc(SCCCO)cc3)n2)cc1)N1CCN(C(=O)c2ccco2)CC1` [Compound 17-34], for which the pIC50 under setting [1] was no less than 6.00.
With `O=C(c1ccc(Nc2nccc(-c3ccc(Cl)cc3)n2)cc1)N1CCC(O)C1` (stereo not drawn) [Compound 17-28], the negative-log IC50 (pIC50) under setting [1] is no less than 5.00.
Regarding `C[C@@H]1CN(C(=O)c2ccc(Nc3nccc(-c4ccc(Cl)cc4)n3)cc2)C[C@H](C)N1` [Compound 17-190], under setting [1], the pIC50 is no less than 6.00.
